Among the data in ChEMBL document CHEMBL1158208, “Raocyclamides A and B, Novel Cyclic Hexapeptides Isolated from the Cyanobacterium Oscillatoria raoi” (J Nat Prod, 1996) are ED100 and Activity values, retold here.

Data set [1] in a line: Inhibition of Paracentrotus lividus embryo division.
A short description of data set [2]: Inhibition of Paracentrotus lividus embryo division at 250 ug/mL.

Regarding `CC[C@H](C)[C@H]1NC(=O)c2coc(n2)[C@H](C)NC(=O)[C@H]2COC(=N2)[C@@H](Cc2ccccc2)NC(=O)c2csc1n2` [RAOCYCLAMIDE A], the ED100 in data set [1] stood at 30 µg/mL.
For `CC[C@H](C)[C@H]1NC(=O)c2coc(n2)[C@H](C)NC(=O)[C@@H](CO)NC(=O)[C@@H](Cc2ccccc2)NC(=O)c2csc1n2` [RAOCYCLAMIDE B], the Activity entry in data set [2] was “Not Active”.
